Measured values as given in PubChem BioAssay AID1963849 (Molecular Pharmacology Branch, DTP, NCI, 2024).

Tested on: 299254-011-R-J1-PDC complex spheroid viability
Experiment: Anticancer human tumor 299254-011-R-J1-PDC patient-derived melanoma cell line growth inhibition [POLQ]
Details: for IC50: curve of first compound; for viability, T/C: stronger effect = lower value
In short: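 Growth inhibition in 3D: complex spheroids (tumor PDC, HUVEC, MSC) treated with POLQ inhibitor combinations; where Cmax unknown, highest tested concentration 10 microM, except SN-38 at 1 microM.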

[1] = second compound 0.0316 µM, first compound 0.0316 µM
[2] = second compound 0.0316 µM, first compound 0.1 µM
[3] = second compound 0.0316 µM, first compound 0.316 µM
[4] = second compound 0.0316 µM, first compound 1 µM
[5] = second compound 0.0316 µM, first compound 3.16 µM
[6] = second compound 0.0316 µM, first compound 10 µM
[7] = second compound 0.1 µM, first compound 0.0316 µM
[8] = second compound 0.1 µM, first compound 0.1 µM
[9] = second compound 0.1 µM, first compound 0.316 µM
[10] = second compound 0.1 µM, first compound 1 µM
[11] = second compound 0.1 µM, first compound 3.16 µM
[12] = second compound 0.1 µM, first compound 10 µM
[13] = second compound 0.316 µM, first compound 0.0316 µM
[14] = second compound 0.316 µM, first compound 0.1 µM
[15] = second compound 0.316 µM, first compound 0.316 µM
[16] = second compound 0.316 µM, first compound 1 µM
[17] = second compound 0.316 µM, first compound 3.16 µM
[18] = second compound 0.316 µM, first compound 10 µM
[19] = second compound 1 µM, first compound 0.0316 µM
[20] = second compound 1 µM, first compound 0.1 µM
[21] = second compound 1 µM, first compound 0.316 µM
[22] = second compound 1 µM, first compound 1 µM
[23] = second compound 1 µM, first compound 3.16 µM
[24] = second compound 1 µM, first compound 10 µM
[25] = second compound 3.16 µM, first compound 0.0316 µM
[26] = second compound 3.16 µM, first compound 0.1 µM
[27] = second compound 3.16 µM, first compound 0.316 µM
[28] = second compound 3.16 µM, first compound 1 µM
[29] = second compound 3.16 µM, first compound 3.16 µM
[30] = second compound 3.16 µM, first compound 10 µM
[31] = second compound 10 µM, first compound 0.0316 µM
[32] = second compound 10 µM, first compound 0.1 µM
[33] = second compound 10 µM, first compound 0.316 µM
[34] = second compound 10 µM, first compound 1 µM
[35] = second compound 10 µM, first compound 3.16 µM
[36] = second compound 10 µM, first compound 10 µM
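Also: spheroids exposed to drugs for one week before measurement.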
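For viability, T/C in this document: percent viability relative to DMSO vehicle control taken as 100%.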

For `O=c1[nH]cc(F)c(=O)[nH]1` + Cc1cccc(N(C)C(=O)C2C(O)CCN2c2nc(C)cc(C(F)(F)F)c2C#N)c1, the IC50 (second compound 0.0316 µM) was greater than 10 µM, the IC50 (second compound 0.1 µM) was greater than 10 µM and the IC50 (second compound 0.316 µM) was greater than 10 µM. The IC50 (second compound 1 µM) was greater than 10 µM, the IC50 (second compound 3.16 µM) was greater than 10 µM and the IC50 (second compound 10 µM) was greater than 10 µM. For the same compound, the viability, T/C [1] was 115%, the viability, T/C [2] was 88% and the viability, T/C [3] was 105%. It also gave a viability, T/C [4] of 97.3%, a viability, T/C [5] of 76.1% and a viability, T/C [6] of 73%. The viability, T/C [7] was 105%, the viability, T/C [8] was 92.4% and the viability, T/C [9] was 96%. For the same compound, the viability, T/C [10] was 94.8%, the viability, T/C [11] was 88.1% and the viability, T/C [12] was 81.2%. It also gave a viability, T/C [13] of 111%, a viability, T/C [14] of 118% and a viability, T/C [15] of 106%. The viability, T/C [16] was 99.3%, the viability, T/C [17] was 98.9% and the viability, T/C [18] was 67.6%. It also gave a viability, T/C [19] of 112%, a viability, T/C [20] of 99.7% and a viability, T/C [21] of 98.2%. The viability, T/C [22] was 92.3%, the viability, T/C [23] was 88% and the viability, T/C [24] was 68.1%. It also gave a viability, T/C [25] of 114%, a viability, T/C [26] of 103% and a viability, T/C [27] of 89.1%. The viability, T/C [28] was 114%, the viability, T/C [29] was 90.3% and the viability, T/C [30] was 65.2%. For the same compound, the viability, T/C [31] was 103%, the viability, T/C [32] was 98% and the viability, T/C [33] was 93.4%. For the same compound, the viability, T/C [34] was 87%, the viability, T/C [35] was 80.9% and the viability, T/C [36] was 69.3%.

Work on `CC[C@@]1(O)C(=O)OCc2c1cc1n(c2=O)Cc2cc3c(CN(C)C)c(O)ccc3nc2-1` + COC1C(OC(N)=O)C(O)C(Oc2ccc3c(O)c(NC(=O)c4ccc(O)c(CC=C(C)C)c4)c(=O)oc3c2C)OC1(C)C yielded an IC50 (second compound 0.0316 µM) greater than 0.1 µM, an IC50 (second compound 0.1 µM) greater than 0.1 µM and an IC50 (second compound 0.316 µM) greater than 0.1 µM. It also gave an IC50 (second compound 1 µM) greater than 0.1 µM, an IC50 (second compound 3.16 µM) greater than 0.1 µM and an IC50 (second compound 10 µM) greater than 0.1 µM. For the same compound, the viability, T/C (second compound 0.0316 µM, first compound 0.000316 µM) was 104%, the viability, T/C (second compound 0.0316 µM, first compound 0.001 µM) was 95.4% and the viability, T/C (second compound 0.0316 µM, first compound 0.00316 µM) was 123%. For the same compound, the viability, T/C (second compound 0.0316 µM, first compound 0.01 µM) was 101%, the viability, T/C [1] was 112% and the viability, T/C [2] was 76%. The viability, T/C (second compound 0.1 µM, first compound 0.000316 µM) was 111%, the viability, T/C (second compound 0.1 µM, first compound 0.001 µM) was 105% and the viability, T/C (second compound 0.1 µM, first compound 0.00316 µM) was 107%. The viability, T/C (second compound 0.1 µM, first compound 0.01 µM) was 110%, the viability, T/C [7] was 114% and the viability, T/C [8] was 83.5%. For the same compound, the viability, T/C (second compound 0.316 µM, first compound 0.000316 µM) was 102%, the viability, T/C (second compound 0.316 µM, first compound 0.001 µM) was 120% and the viability, T/C (second compound 0.316 µM, first compound 0.00316 µM) was 103%. For the same compound, the viability, T/C (second compound 0.316 µM, first compound 0.01 µM) was 102%, the viability, T/C [13] was 120% and the viability, T/C [14] was 74.5%. The viability, T/C (second compound 1 µM, first compound 0.000316 µM) was 104%, the viability, T/C (second compound 1 µM, first compound 0.001 µM) was 106% and the viability, T/C (second compound 1 µM, first compound 0.00316 µM) was 111%. The viability, T/C (second compound 1 µM, first compound 0.01 µM) was 110%, the viability, T/C [19] was 110% and the viability, T/C [20] was 67.6%. For the same compound, the viability, T/C (second compound 3.16 µM, first compound 0.000316 µM) was 115%, the viability, T/C (second compound 3.16 µM, first compound 0.001 µM) was 104% and the viability, T/C (second compound 3.16 µM, first compound 0.00316 µM) was 93.6%. The viability, T/C (second compound 3.16 µM, first compound 0.01 µM) was 105%, the viability, T/C [25] was 105% and the viability, T/C [26] was 84.6%. The viability, T/C (second compound 10 µM, first compound 0.000316 µM) was 112%, the viability, T/C (second compound 10 µM, first compound 0.001 µM) was 111% and the viability, T/C (second compound 10 µM, first compound 0.00316 µM) was 112%. For the same compound, the viability, T/C (second compound 10 µM, first compound 0.01 µM) was 102%, the viability, T/C [31] was 110% and the viability, T/C [32] was 87.1%.

For `C=CC(=O)N1CCN(c2nc(=O)n(-c3c(C)ccnc3C(C)C)c3nc(-c4c(O)cccc4F)c(F)cc23)C(C)C1` (stereo not drawn) + COC1C(OC(N)=O)C(O)C(Oc2ccc3c(O)c(NC(=O)c4ccc(O)c(CC=C(C)C)c4)c(=O)oc3c2C)OC1(C)C, the IC50 (second compound 0.0316 µM) was greater than 10 µM, the IC50 (second compound 0.1 µM) was greater than 10 µM and the IC50 (second compound 0.316 µM) was greater than 10 µM. For the same compound, the IC50 (second compound 1 µM) was greater than 10 µM, the IC50 (second compound 3.16 µM) was greater than 10 µM and the IC50 (second compound 10 µM) was greater than 10 µM. For the same compound, the viability, T/C [1] was 75.8%, the viability, T/C [2] was 72.7% and the viability, T/C [3] was 64.3%. It also gave a viability, T/C [4] of 66.3%, a viability, T/C [5] of 69% and a viability, T/C [6] of 65.1%. It also gave a viability, T/C [7] of 73.9%, a viability, T/C [8] of 69.6% and a viability, T/C [9] of 64.8%. The viability, T/C [10] was 63.1%, the viability, T/C [11] was 59.4% and the viability, T/C [12] was 73.4%. It also gave a viability, T/C [13] of 91.4%, a viability, T/C [14] of 75.5% and a viability, T/C [15] of 69.7%. For the same compound, the viability, T/C [16] was 66.6%, the viability, T/C [17] was 70.4% and the viability, T/C [18] was 54.2%. For the same compound, the viability, T/C [19] was 83.5%, the viability, T/C [20] was 70.7% and the viability, T/C [21] was 60.7%. For the same compound, the viability, T/C [22] was 73.3%, the viability, T/C [23] was 66.1% and the viability, T/C [24] was 70.3%. The viability, T/C [25] was 77.1%, the viability, T/C [26] was 65.5% and the viability, T/C [27] was 62.3%. For the same compound, the viability, T/C [28] was 64.7%, the viability, T/C [29] was 69.3% and the viability, T/C [30] was 60.1%. The viability, T/C [31] was 82.9%, the viability, T/C [32] was 74.5% and the viability, T/C [33] was 63.5%. For the same compound, the viability, T/C [34] was 58.7%, the viability, T/C [35] was 62.5% and the viability, T/C [36] was 56.8%.

For `CCc1cc2c(N3CCc4c(cc(Cn5ccnc5)cc4-c4cn(C)nc4C(F)(F)F)C3=O)cc(C)nc2c(OC)n1` + Nc1ccc(C#CCN(C(=O)Cc2ncc(C(F)(F)F)cc2C(F)(F)F)c2ccc(F)cc2)nn1, the IC50 (second compound 0.0316 µM) was greater than 10 µM, the IC50 (second compound 0.1 µM) was greater than 10 µM and the IC50 (second compound 0.316 µM) was greater than 10 µM. It also gave an IC50 (second compound 1 µM) greater than 10 µM, an IC50 (second compound 3.16 µM) greater than 10 µM and an IC50 (second compound 10 µM) greater than 10 µM. For the same compound, the viability, T/C [1] was 94.3%, the viability, T/C [2] was 99.2% and the viability, T/C [3] was 107%. It also gave a viability, T/C [4] of 98.5%, a viability, T/C [5] of 86.8% and a viability, T/C [6] of 58.7%. The viability, T/C [7] was 90.3%, the viability, T/C [8] was 103% and the viability, T/C [9] was 117%. For the same compound, the viability, T/C [10] was 101%, the viability, T/C [11] was 92.9% and the viability, T/C [12] was 76.1%. The viability, T/C [13] was 114%, the viability, T/C [14] was 110% and the viability, T/C [15] was 100%. For the same compound, the viability, T/C [16] was 94.4%, the viability, T/C [17] was 95% and the viability, T/C [18] was 63.1%. It also gave a viability, T/C [19] of 107%, a viability, T/C [20] of 95.7% and a viability, T/C [21] of 111%. The viability, T/C [22] was 101%, the viability, T/C [23] was 89.4% and the viability, T/C [24] was 70.9%. It also gave a viability, T/C [25] of 116%, a viability, T/C [26] of 106% and a viability, T/C [27] of 91.7%. It also gave a viability, T/C [28] of 86.2%, a viability, T/C [29] of 90.6% and a viability, T/C [30] of 55.1%. The viability, T/C [31] was 98.7%, the viability, T/C [32] was 96.5% and the viability, T/C [33] was 90.9%. It also gave a viability, T/C [34] of 85.3%, a viability, T/C [35] of 68% and a viability, T/C [36] of 61.1%.
